The target of one experiment is MEK1 (Homo sapiens, UniProt Q02750). The experiment in a line: radiometric kinase assay, other kinases: MEK1. The format is biochemical. The settings on record: duplicate. The protocol: (§1) Compound inhibition in a radiometric based mixed micelle assay: In a final reaction volume of 25 μL, TrkA (h) ([…]) is incubated with the kinase reaction buffer (20 mM HEPES (pH 7.5), 10 mM MgCl2, 1 mM EGTA, 0.02% Brij 35, 0.02 mg/ml BSA, 0.1 mM Na3VO4, 2 mM DTT, 1% DMSO), 0.2 mg/ml substrate PolyEY(4:1) and […], and [^33P-ATP](specific activity approx. 500 cpm/pmol, concentration as required). The reaction is initiated by the addition of the MgATP mix. After incubation for at least 40 minutes at room temperature, the reaction is stopped by the addition of 5 μL of a 3% phosphoric acid solution. 10 μL of the reaction is then spotted onto a P30 filtermat and washed three times for 5 minutes in 75 mM phosphoric acid and once in methanol prior to drying and scintillation counting. TrkA: Recombinant Human Cytoplasmic Domain (amino acids 441-796), Histidine-tagged, expressed in insect cells. Activated in vitro via auto-phosphorylation. Mw=42.8 kDa. Substrates for kinases: poly(EY) for TRKA; poly(EY)(4:1) with 2 mM MnCl2, average Mw=16 kDa Standard conditions (unless otherwise specified): 30 nM TRKA, 0.2 mg/ml poly(EY)+2 mM MnCl2, and 10 μM ([γ-^33P]) ATP. Using the similar assay condition with other kinases of recombinant human cytoplasmic domain, the activities of other kinases could be also measured.
Sequence of MEK1 (Q02750 whole entry): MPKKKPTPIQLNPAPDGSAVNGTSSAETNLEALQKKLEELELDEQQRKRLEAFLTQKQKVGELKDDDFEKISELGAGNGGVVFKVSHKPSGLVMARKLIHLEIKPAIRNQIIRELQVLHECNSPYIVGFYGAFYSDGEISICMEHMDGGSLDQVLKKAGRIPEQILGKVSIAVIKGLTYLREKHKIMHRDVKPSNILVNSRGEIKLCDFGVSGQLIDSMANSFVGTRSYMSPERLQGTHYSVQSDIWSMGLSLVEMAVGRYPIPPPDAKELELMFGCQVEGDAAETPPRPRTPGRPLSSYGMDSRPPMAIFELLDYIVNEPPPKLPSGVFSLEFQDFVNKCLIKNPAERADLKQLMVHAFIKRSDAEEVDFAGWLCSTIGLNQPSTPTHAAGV

Another experiment has as its target CDK2/cyclinA (Homo sapiens, UniProt P24941). The experiment in a line: radiometric kinase assay, other kinases: CDK2/cyclinA. The settings on record: duplicate. The class given is biochemical. The procedure:
as §1

The target of another experiment is PKCmu/PKD1 (Homo sapiens, UniProt Q15139). The experiment in a line: radiometric kinase assay, other kinases: PKCmu/PKD1. The format is biochemical. The settings on record: duplicate. The protocol:
as §1

Another experiment deals with PKD2/PRKD2 (Homo sapiens, UniProt Q9BZL6). The experiment in a line: radiometric kinase assay, other kinases: PKD2/PRKD2. The class given is biochemical. Particulars: duplicate. The procedure: as §1
Sequence of PKD2/PRKD2 (Q9BZL6 whole entry): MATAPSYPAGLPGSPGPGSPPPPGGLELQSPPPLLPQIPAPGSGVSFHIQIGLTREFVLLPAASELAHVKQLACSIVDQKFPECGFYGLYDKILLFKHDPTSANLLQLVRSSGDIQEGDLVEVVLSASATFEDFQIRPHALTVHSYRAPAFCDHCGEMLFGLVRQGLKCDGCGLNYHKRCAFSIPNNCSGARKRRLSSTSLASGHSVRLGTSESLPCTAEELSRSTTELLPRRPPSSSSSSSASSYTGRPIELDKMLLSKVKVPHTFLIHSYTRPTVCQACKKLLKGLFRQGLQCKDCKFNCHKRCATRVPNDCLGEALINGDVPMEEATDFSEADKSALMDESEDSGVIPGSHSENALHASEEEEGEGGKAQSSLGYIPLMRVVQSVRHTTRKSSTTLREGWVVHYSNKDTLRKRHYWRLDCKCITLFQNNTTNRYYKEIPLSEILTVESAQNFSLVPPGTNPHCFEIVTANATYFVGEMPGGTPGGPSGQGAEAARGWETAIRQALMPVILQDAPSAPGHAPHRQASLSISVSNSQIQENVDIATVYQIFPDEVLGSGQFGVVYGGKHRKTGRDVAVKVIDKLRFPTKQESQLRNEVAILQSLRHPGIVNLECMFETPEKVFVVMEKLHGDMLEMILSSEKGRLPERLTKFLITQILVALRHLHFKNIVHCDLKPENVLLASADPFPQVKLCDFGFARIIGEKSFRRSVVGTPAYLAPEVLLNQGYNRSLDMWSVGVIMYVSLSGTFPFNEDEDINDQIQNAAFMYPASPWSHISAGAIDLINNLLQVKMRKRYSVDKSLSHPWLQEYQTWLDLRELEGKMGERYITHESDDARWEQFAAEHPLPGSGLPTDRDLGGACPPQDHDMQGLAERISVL
Another experiment deals with CDK2/cyclinE (Homo sapiens, UniProt P24941). The experiment in a line: radiometric kinase assay, other kinases: CDK2/cyclinE. The format is biochemical. Particulars: duplicate. The procedure:
as §1

Another experiment concerns the target JAK3 (Homo sapiens, UniProt P52333). The experiment in a line: radiometric kinase assay, other kinases: JAK3. The class given is biochemical. Particulars: duplicate. The protocol: as §1
Another experiment has as its target T1, RET (Homo sapiens, UniProt P07949).
T1 construct: other kinases of recombinant human cytoplasmic domain
The experiment in a line: radiometric kinase assay, other kinases: RET. The format is biochemical. Particulars: duplicate. The procedure: as §1

The next experiment deals with TEC (Homo sapiens, UniProt P42680). The experiment in a line: radiometric kinase assay, other kinases: TEC. Particulars: duplicate. The format is biochemical. The procedure:
as §1

Experiment [1] has as its system NCI-N87 human stomach cancer cells. The experiment in a line: Cell Viability and Proliferation Assay, NCI-N87. The format is cell-based. The settings on record: after 24 incubation. The procedure: Cell Viability and Proliferation Assays. To assess the chemosensitivity of tumor cells, cell viability is measured by CellTiter-Glo® Luminescent Cell Viability Assay (Promega; Wis., USA) per the manufacturer's instruction. Briefly, 5×10^3 to 7×10^5 cells/ml are cultured in sterile 96-well plates in the presence of increasing concentrations of the drugs (test article, 0 to 100 μM), or vehicle in RPMI medium. The plates are then incubated for 24 to 96 h, and then 100 μl of CellTiter-Glo reagent is added to lyse the cells. After a 10-min incubation at room temperature, the luminescence is recorded in a luminometer with an integration time of 1 s per well. The luminescence signals for the drug-treated cells are normalized by the luminescence signal obtained from vehicle-treated cells. As an alternative method to quantitate cell viability, the trypan blue exclusion dye method was used. Vehicle- or drug-treated cells were assayed by adding trypan blue solution (0.4% in phosphate-buffered saline [PBS]) to the culture medium. After 3 min, the number of dead cells that retained the dye is compared to the total number of cells to calculate cell viability. GraphPad Prism 5 software is used to calculate IC50 and plot effect-dose curve of drugs. Multiplate reader: EnVision 2104 (PerkinElmer). % of control variability=100*[(X(drug_treated)−L(baseline))/(H(vehicle_control)−L(baseline))]. […]

The next experiment addresses T2, ALK5/TGFB-R1 (Homo sapiens, UniProt P36897).
T2 construct: other kinases of recombinant human cytoplasmic domain
The experiment in a line: radiometric kinase assay, other kinases: ALK5/TGFB-R1. The format is biochemical. Particulars: duplicate. The procedure: as §1

The target in a further experiment is ABL1 (Homo sapiens, UniProt P00519). The experiment in a line: radiometric kinase assay, other kinases: ABL1. The format is biochemical. Particulars: duplicate. The procedure:
as §1

Experiment [2] has as its system CCI rats, mechanical allodynia. The settings on record: CCI rats, 150 mg/kg oral dose.
Description: Chronic Constriction Injury (CCI) Model of Neuropathic Pain in Rats. […] Chronic constriction injury of the sciatic nerve was produced by tying four loose ligatures around the left sciatic nerve according to the method of Bennett and Xie. […] Calibrated von Frey filaments were used to determine the lowest mechanical (tactile) threshold required to evoke a brisk paw withdrawal reflex in the rat hindpaws. Rats were allowed to acclimatize in wire mesh cages for 15-20 min prior to von Frey testing. Assessment of paw withdrawal thresholds (PWTs) using von Frey filaments was undertaken prior to CCI-surgery (pre-surgery baseline on day 0). Before the drug dosing on day 14, the pre-dose baseline was recorded for each rat. […] Drug-naïve CCI-rats (n=4-6 per group) were used. The oral vehicle was 0.5% CMC-Na/0.1% Tween 80 in distilled water. The positive control gabapentin was dissolved in the vehicle and orally given at 100 mg/kg (by oral gavage). Test compound was suspended in the vehicle and orally given at 50 mg/kg and 100 mg/kg.

We go through one compound from patent publication US9855265B2, “Methods for treating cancer with TrkA receptor tyrosine kinase antagonists” (VM Oncology LLC, priority 2014, dated 2018).

Molecules are shown by their SMILES.

Sequence of TEC (P42680 whole entry): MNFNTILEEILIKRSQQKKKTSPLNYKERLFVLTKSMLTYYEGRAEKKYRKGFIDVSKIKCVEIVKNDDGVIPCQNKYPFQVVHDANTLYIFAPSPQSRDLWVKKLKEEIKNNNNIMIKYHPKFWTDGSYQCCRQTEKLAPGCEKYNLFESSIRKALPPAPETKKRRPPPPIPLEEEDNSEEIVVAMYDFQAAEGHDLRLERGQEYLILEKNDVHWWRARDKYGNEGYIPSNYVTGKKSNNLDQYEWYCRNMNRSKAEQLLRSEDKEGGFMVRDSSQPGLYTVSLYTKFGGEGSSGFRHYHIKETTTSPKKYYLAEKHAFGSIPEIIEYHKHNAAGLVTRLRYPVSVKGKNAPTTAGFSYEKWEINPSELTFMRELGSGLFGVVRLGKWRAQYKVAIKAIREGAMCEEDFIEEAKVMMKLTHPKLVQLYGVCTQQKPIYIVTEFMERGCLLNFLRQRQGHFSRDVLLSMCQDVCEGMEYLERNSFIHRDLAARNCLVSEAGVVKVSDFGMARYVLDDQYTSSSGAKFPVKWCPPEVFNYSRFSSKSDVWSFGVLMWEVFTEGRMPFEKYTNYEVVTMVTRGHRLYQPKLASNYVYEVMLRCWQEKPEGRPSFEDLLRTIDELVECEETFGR
Sequence of ABL1 (P00519 whole entry): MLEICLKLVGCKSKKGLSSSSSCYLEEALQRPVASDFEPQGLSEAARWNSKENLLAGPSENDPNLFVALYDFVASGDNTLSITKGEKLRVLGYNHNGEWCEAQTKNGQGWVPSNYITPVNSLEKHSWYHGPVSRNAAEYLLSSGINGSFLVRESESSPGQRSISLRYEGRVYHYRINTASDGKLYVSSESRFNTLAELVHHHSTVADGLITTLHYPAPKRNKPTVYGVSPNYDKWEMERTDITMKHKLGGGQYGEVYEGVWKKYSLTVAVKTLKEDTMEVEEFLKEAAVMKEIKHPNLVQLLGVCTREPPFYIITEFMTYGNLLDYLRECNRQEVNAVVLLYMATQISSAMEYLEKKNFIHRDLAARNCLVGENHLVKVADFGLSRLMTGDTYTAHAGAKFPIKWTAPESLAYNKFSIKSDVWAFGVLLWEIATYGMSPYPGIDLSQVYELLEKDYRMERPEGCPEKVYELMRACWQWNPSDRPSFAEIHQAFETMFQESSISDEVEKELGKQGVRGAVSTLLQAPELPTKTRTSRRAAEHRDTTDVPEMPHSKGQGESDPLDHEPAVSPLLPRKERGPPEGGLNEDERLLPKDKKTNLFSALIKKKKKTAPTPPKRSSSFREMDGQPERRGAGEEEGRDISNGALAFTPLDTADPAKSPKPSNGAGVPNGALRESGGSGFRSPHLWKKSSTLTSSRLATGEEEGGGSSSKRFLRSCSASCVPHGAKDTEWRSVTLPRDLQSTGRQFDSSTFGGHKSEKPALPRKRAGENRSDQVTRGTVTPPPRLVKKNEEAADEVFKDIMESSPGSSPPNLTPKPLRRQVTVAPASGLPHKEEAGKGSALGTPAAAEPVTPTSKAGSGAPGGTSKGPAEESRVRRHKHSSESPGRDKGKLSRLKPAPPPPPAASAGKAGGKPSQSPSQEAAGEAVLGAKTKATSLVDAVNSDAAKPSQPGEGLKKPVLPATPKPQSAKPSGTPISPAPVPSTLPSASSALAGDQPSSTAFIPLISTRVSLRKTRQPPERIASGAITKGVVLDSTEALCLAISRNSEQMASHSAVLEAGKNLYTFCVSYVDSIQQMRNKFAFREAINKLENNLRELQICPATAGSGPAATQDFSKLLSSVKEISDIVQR
T1 sequence (P07949 658-1114 limits assumed): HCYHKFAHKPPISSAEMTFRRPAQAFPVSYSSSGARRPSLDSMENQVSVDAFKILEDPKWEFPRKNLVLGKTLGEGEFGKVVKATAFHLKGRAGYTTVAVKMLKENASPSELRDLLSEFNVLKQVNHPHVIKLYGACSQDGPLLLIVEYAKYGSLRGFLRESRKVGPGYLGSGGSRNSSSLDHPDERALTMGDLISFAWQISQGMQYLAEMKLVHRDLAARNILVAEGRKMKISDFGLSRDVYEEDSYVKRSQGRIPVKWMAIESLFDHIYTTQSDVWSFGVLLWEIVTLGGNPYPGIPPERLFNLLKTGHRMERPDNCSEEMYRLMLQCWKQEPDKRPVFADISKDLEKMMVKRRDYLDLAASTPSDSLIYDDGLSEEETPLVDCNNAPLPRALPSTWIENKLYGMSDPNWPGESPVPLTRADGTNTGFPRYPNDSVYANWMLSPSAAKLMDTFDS
T2 sequence (P36897 148-503 limits assumed): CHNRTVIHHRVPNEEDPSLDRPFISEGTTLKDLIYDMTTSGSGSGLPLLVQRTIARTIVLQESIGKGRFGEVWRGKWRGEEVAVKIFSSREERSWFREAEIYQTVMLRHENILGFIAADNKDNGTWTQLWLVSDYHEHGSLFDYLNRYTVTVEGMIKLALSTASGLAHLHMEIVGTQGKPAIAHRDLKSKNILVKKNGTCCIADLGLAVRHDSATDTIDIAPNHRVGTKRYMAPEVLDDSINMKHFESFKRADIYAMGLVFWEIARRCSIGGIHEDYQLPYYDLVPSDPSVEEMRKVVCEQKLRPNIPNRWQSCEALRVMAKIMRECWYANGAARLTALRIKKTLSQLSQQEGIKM
Sequence of JAK3 (P52333 whole entry): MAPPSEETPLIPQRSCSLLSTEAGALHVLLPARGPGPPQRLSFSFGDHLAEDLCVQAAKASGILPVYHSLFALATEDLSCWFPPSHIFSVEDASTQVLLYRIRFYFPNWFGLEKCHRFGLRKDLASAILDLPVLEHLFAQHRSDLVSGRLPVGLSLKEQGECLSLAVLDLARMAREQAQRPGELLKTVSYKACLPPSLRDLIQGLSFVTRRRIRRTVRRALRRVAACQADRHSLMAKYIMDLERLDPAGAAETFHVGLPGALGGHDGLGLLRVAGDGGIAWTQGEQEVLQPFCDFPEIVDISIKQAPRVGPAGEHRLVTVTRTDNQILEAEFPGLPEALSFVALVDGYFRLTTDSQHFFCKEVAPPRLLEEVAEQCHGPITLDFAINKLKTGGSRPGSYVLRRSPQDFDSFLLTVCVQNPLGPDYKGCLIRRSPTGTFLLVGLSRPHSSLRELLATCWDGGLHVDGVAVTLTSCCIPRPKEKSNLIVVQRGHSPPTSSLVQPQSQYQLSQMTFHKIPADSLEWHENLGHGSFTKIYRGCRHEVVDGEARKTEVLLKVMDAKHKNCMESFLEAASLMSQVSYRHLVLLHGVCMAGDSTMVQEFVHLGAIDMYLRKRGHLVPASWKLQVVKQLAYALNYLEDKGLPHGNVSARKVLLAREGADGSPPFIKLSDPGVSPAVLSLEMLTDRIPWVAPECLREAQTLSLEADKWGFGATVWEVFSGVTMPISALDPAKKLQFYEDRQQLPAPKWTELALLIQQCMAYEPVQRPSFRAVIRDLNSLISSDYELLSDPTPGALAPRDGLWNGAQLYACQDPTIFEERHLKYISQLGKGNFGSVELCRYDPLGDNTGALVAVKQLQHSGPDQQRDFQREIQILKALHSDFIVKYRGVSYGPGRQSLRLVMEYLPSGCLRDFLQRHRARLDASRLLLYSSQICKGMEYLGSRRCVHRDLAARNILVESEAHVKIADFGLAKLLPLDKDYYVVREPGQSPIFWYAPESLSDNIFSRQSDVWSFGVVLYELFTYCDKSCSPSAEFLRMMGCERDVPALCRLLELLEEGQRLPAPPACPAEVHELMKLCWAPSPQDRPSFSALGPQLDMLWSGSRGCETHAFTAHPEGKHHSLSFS

A word on the IC50: it is the concentration that gives 50% inhibition. For the compound `Nc1c(N2CCN(C3CCCCC3)CC2)cc(Nc2ccc(C(=O)O)cc2)c2c1C(=O)c1ccccc1C2=O` [Compound 12, 4-{[4-amino-3-(4-cyclohexylpiperazin-1-yl)-9,10-dioxo-9,10-dihydroanthracen-1-yl]amino}benzoic acid], the concentration for half-maximal inhibition (IC50) at MEK1, on CDK2/cyclinA, on PKCmu/PKD1, at PKD2/PRKD2, against CDK2/cyclinE and against JAK3 was > 10 µM throughout. Besides, the IC50 against RET is > 10 µM; against TEC, > 10 µM; in experiment [1] it was ~7 µM; against ALK5/TGFB-R1, > 10 µM; against ABL1 it was > 10 µM. The “relative analgesic effect compared to morphine (HCl) at 3 mg/kg, s.c.” value in experiment [2] is reported as “about 48%”.
